Tested on: 16S RNA versus modified 16S RNA (5IU1495)
Experiment: Dissociation rate of binary ligand complexes versus relative energy (capillary exit-skimmer voltage), ESI-FT-ICR MS
Type: binding, E. coli
Conditions: Example 8: 2-deoxystreptamine 100 μM, RNAs 2.5 μM each
Description: The following examples illustrate preferred embodiments of the present invention using mass spectrometry. Experiments were performed using a 7.0 Tesla Fourier transform ion cyclotron resonance (FT-ICR) mass spectrometer with an electrospray ionization source operating in the negative mode. A −3000 V difference was employed between the spray tip and the inlet capillary to generate the electrospray. Samples were introduced at a flow rate of 1.5 uL/min using a Harvard syringe pump and a 50 uL glass syringe. The desolvation of the electrospray droplets was aided by a flow of countercurrent gas at 1 L/min. Ions were accumulated for 1.0 sec in an intermediate hexapole ion storage region at 1.0×10^−5 mbar. Following transfer to the FT-ICR analysis cell, the image current was measured over a mass range of 500-4000 m/z. Typically, a total of 32 transients containing 512 kbytes were summed prior to Fourier transformation. […]
An aqueous solution containing 50 mM ammonium acetate buffer (pH 7.0), 33% isopropyl alcohol, 2-deoxystreptamine (100 μM), 16S RNA (2.5 μM) and a modified 16S RNA (2.5 μM) was prepared. […] The peaks were integrated and ion abundances determined for each of the separate runs. Fractions of 16S+2-DOS and 5IU1495+2-DOS complexes were determined and plotted according to relative energy as depicted in FIG. 6. […]

N[C@@H]1C[C@H](N)[C@@H](O)C(O)[C@H]1O (some centres unmarked) [2-deoxystreptamine]
Difference in dissociation rate (slope) between the 16S and 5IU1495 systems, first region (1 to 2 relative energy units (FIG. 6)): about 25%
Dissociation rate (slope) of 16S versus 5IU1495 systems, higher energy region (2 to 4 relative energy units (FIG. 6)): substantially equal

— patent US6787315B2, “Methods for identifying ligand binding sites in a biomolecule” (priority 2001, dated 2004)
